In patent US10508104B2, “6-hydroxy-5-(phenyl/heteroarylsulfonyl)pyrimidin-4(1H)-one as APJ agonists” (Bristol-Myers Squibb Company, priority 2016, dated 2019) one finds EC50 data, which are given here for 27 compounds.

Chain of human APJ receptor (P35414 whole entry): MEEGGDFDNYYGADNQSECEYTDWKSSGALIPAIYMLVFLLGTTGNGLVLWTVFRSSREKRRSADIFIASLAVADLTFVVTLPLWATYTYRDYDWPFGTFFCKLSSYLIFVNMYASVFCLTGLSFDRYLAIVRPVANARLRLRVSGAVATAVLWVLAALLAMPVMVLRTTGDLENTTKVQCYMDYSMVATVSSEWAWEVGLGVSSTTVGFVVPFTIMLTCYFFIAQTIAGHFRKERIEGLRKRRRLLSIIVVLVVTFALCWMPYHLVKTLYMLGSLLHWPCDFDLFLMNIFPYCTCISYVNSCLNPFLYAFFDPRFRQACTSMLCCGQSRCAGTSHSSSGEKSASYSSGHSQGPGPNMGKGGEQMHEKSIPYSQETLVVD

The target in the first test is human APJ receptor (Homo sapiens (Human), UniProt P35414). The test is described as follows: Intracellular cAMP accumulation assay (APJ hcAMP, HTRF). Format: cell-based. The settings on record: HEK293 cells stably expressing human APJ receptor; inhibition of forskolin-mediated cAMP production; read-out: Human APJ cAMP EC50 Potency range. In a few lines:
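HEK293 cells stably expressing human APJ, 5,000 per well, incubated 30 min at rt with compound, […] and 2 μM forskolin. cAMP measured by HTRF against a cAMP standard curve as inhibition of forskolin-driven production. EC50 from variable-slope sigmoidal fit.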
The term EC50 denotes the concentration giving half of the maximal effect. For `Cc1c(-c2ccc(S(=O)(=O)c3c(O)n([C@H](c4cccc(C#N)c4)C4CC4)c(COC(C)C)nc3=O)cc2)ccnc1F` [Example 419, 3-[(S)-cyclopropyl({5-[4-(2-fluoro-3-methylpyridin-4-yl)benzenesulfonyl]-6-hydroxy-4-oxo-2-[(propan-2-yloxy)methyl]-1,4-dihydropyrimidin-1-yl})methyl]benzonitrile], the EC50 was in the range of 0.01 to 10 nM.

For the compound `CCCCc1nc(=O)c(S(=O)(=O)c2ccc(-c3cccc(C(=O)NC)c3)cc2)c(O)n1[C@@H](CC)c1cccc(C#N)n1` [Example 552, 4′-({2-butyl-1-[(1S)-1-(6-cyanopyridin-2-yl)propyl]-6-hydroxy-4-oxo-1,4-dihydropyrimidin-5-yl}sulfonyl)-N-methyl-[1,1′-biphenyl]-3-carboxamide], the EC50 was 0.01 to 10 nM.

Consider `COC[C@@H](c1ccccc1)n1c(CCC(C)C)nc(=O)c(S(=O)(=O)c2ccc(Br)cc2)c1O` [Example 184, (R)-5-((4-Bromophenyl)sulfonyl)-6-hydroxy-2-isopentyl-3-(2-methoxy-1-phenylethyl)pyrimidin-4(3H)-one], for which the EC50 was in the range of 10 to 100 nM.

As to `C=C(c1cccc(C#N)c1)n1c(CCCC)nc(=O)c(S(=O)(=O)c2ccc(-c3ccncc3C)cc2)c1O` [Example 360, 3-(1-(2-butyl-6-hydroxy-5-((4-(3-methylpyridin-4-yl)phenyl)sulfonyl)-4-oxopyrimidin-1 (4H)-yl)vinyl)benzonitrile], the EC50 lay within 0.01 to 10 nM.

`COC[C@@H](c1cccc(C#N)c1)n1c(COC(C)C)nc(=O)c(S(=O)(=O)c2ccc(-c3ccccc3C(N)=O)cc2)c1O` [Example 399, 4′-({1-[(1R)-1-(3-cyanophenyl)-2-methoxyethyl]-6-hydroxy-4-oxo-2-[(propan-2-yloxy)methyl]-1,4-dihydropyrimidin-5-yl}sulfonyl)-[1,1′-biphenyl]-2-carboxamide]: the EC50 fell in the range of 0.01 to 10 nM.

For `CC(C)OCc1nc(=O)c(S(=O)(=O)c2ccc(-c3cnccc3C#N)cc2)c(O)n1[C@H](c1cccc(C#N)c1)C1CC1` [Example 414, 3-[4-({1-[(S)-(3-cyanophenyl)(cyclopropyl)methyl]-6-hydroxy-4-oxo-2-[(propan-2-yloxy)methyl]-1,4-dihydropyrimidin-5-yl}sulfonyl)phenyl] pyridine-4-carbonitrile], the EC50 is 0.01 to 10 nM.

Regarding `CCOCc1nc(=O)c(S(=O)(=O)c2ccc(-c3ccc(F)nc3C)cc2)c(O)n1[C@@H](COC)c1cc(F)cc(F)c1` [Example 385, 1-[(1R)-1-(3,5-difluorophenyl)-2-methoxyethyl]-2-(ethoxymethyl)-5-[4-(6-fluoro-2-methylpyridin-3-yl)benzenesulfonyl]-6-hydroxy-1,4-dihydropyrimidin-4-one], the EC50 was 0.01 to 10 nM.

As to `COC[C@@H](c1cccc(C#N)c1)n1c(COC(C)C)nc(=O)c(S(=O)(=O)c2ccc(-c3ccc(F)nc3C)cc2)c1O` [Example 389, 3-[(1R)-1-{5-[4-(6-fluoro-2-methylpyridin-3-yl)benzenesulfonyl]-6-hydroxy-4-oxo-2-[(propan-2-yloxy)methyl]-1,4-dihydropyrimidin-1-yl}-2-methoxyethyl]benzonitrile], the EC50 lay within 0.01 to 10 nM.

In the case of `CCCCc1nc(=O)c(S(=O)(=O)c2ccc(-c3ccccc3C)cn2)c(O)n1[C@@H](CC)c1cccc(C#N)c1` [Example 482, 3-[(1S)-1-(2-butyl-6-hydroxy-5-{[5-(2-methy!phenyl)pyridin-2-yl]sulfonyl}-4-oxo-1,4-dihydropyrimidin-1-yl)propyl]benzonitrile], the EC50 lay within 0.01 to 10 nM.

As for `CCCCc1nc(=O)c(S(=O)(=O)c2ccc(-c3ccncc3C)cc2)c(O)n1[C@@H](CC)c1cc(F)cc(F)c1` [Example 427, 2-butyl-1-[(1S)-1-(3,5-difluorophenyl)propyl]-6-hydroxy-5-[4-(3-methylpyridin-4-yl)benzenesulfonyl]-1,4-dihydropyrimidin-4-one], the EC50 was 0.01 to 10 nM.

The same test, now with this note: human APJ, cAMP accumulation; read-out: Human APJ cAMP EC50 Potency range.
As for `CCCCc1nc(=O)c(S(=O)(=O)c2ccc(-c3cncc(F)c3)cc2)c(O)n1[C@@H](C)c1ccccc1OC` [Example 232, 2-butyl-5-[4-(5-fluoropyridin-3-yl)benzenesulfonyl]-6-hydroxy-1-[(1S)-1-(2-methoxyphenyl)ethyl]-1,4-dihydropyrimidin-4-one], the EC50 is 0.01 to 10 nM.

Take `COC[C@@H](c1ccccc1)n1c(C2CCCO2)nc(=O)c(S(=O)(=O)c2ccc(-c3ccnc(F)c3C)cc2)c1O` (mixture of isomers) [Example 353, 5-[4-(2-fluoro-3-methylpyridin-4-yl)benzenesulfonyl]-6-hydroxy-1-[(1R)-2-methoxy-1-phenylethyl]-2-(oxolan-2-yl)-1,4-dihydropyrimidin-4-one]: the EC50 lay within 0.01 to 10 nM.

Turning to `CCCCc1nc(=O)c(S(=O)(=O)c2ccc(-c3ccnc(F)c3C)cc2)c(O)n1[C@@H](CC)c1cccc2c1OCO2` [Example 257, 1-[(1S)-1-(2H-1,3-benzodioxol-4-yl)propyl]-2-butyl-5-[4-(2-fluoro-3-methylpyridin-4-yl)benzenesulfonyl]-6-hydroxy-1,4-dihydropyrimidin-4-one], the EC50 was in the range of 0.01 to 10 nM.

For `COC[C@@H](c1ccccc1)n1c(COC(C)C)nc(=O)c(S(=O)(=O)c2ccc(Br)cc2)c1O` [Example 295, 5-(4-bromobenzenesulfonyl)-6-hydroxy-1-[(1R)-2-methoxy-1-phenylethyl]-2-[(propan-2-yloxy)methyl]-1,4-dihydropyrimidin-4-one], the EC50 fell in the range of 10 to 100 nM.

On to `COC[C@@H](c1ccccc1)n1c(C2CCCO2)nc(=O)c(S(=O)(=O)c2ccc(-c3ccc(F)nc3)cc2)c1O` (single isomer, unassigned) [Example 358], for which the EC50 lay in the range of 0.01 to 10 nM.

Turning to `CCCCc1nc(=O)c(S(=O)(=O)c2ccc(-c3cncc(F)c3)cc2)c(O)n1[C@@H](CC)c1cccc2c1OCO2` [Example 258, 1-[(1S)-1-(2H-1,3-benzodioxol-4-yl)propyl]-2-butyl-5-[4-(5-fluoropyridin-3-yl)benzenesulfonyl]-6-hydroxy-1,4-dihydropyrimidin-4-one], the EC50 was 0.01 to 10 nM.

For `CCCCc1nc(=O)c(S(=O)(=O)c2ccc(-c3cncc(C)c3)cc2)c(O)n1[C@@H](CC)c1ccccc1` [Example 293, 2-butyl-6-hydroxy-5-[4-(5-methylpyridin-3-yl)benzenesulfonyl]-1-[(1S)-1-phenylpropyl]-1,4-dihydropyrimidin-4-one], the EC50 is 0.01 to 10 nM.

As for `CCOCc1nc(=O)c(S(=O)(=O)c2ccc(-c3cccnc3C)cc2)c(O)n1[C@@H](CC)c1ccccc1` [Example 310, 2-(ethoxymethyl)-6-hydroxy-5-[4-(2-methylpyridin-3-yl)benzenesulfonyl]-1-[(1S)-1-phenylpropyl]-1,4-dihydropyrimidin-4-one], the 50% effective concentration (EC50) was 0.01 to 10 nM.

Still in this test, the particulars now being: human APJ, intracellular cAMP accumulation; read-out: Human APJ cAMP EC50 Potency range.
As for `CC[C@@H](c1ccccc1)n1c(CCC(C)C)nc(=O)c(S(=O)(=O)c2ccc(-c3ccncc3C)cc2)c1O` [Example 209, 6-hydroxy-2-(3-methylbutyl)-5-[4-(3-methylpyridin-4-yl)benzenesulfonyl]-1-[(1S)-1-phenylpropyl]-1,4-dihydropyrimidin-4-one], the EC50 lay within 0.01 to 10 nM.

Take `CCCCc1nc(=O)c(S(=O)(=O)c2ccc(-c3ccnc(NC(=O)C4CC4)c3)cc2)c(O)n1-c1c(CC)cccc1CC` [Example 65, N-[4-(4-{[2-butyl-1-(2,6-diethylphenyl)-6-hydroxy-4-oxo-1,4-dihydropyrimidin-5-yl]sulfonyl}phenyl)pyri-din-2-yl]cyclopropane-carboxamide]: the EC50 lay in the range of 0.01 to 10 nM.

`CCCc1nc(=O)c(S(=O)(=O)c2ccc(Br)cc2)c(O)n1[C@@H](COC)c1ccccc1` [Example 125, 5-(4-bromobenzenesulfonyl)-6-hydroxy-1-[(1R)-2-methoxy-1-phenylethyl]-2-propyl-1,4-dihydropyrimidin-4-one]: the EC50 was in the range of 100 to 300 nM.

As for `CCCCc1nc(=O)c(S(=O)(=O)c2ccc(-c3ccc(F)nc3)cc2)c(O)n1[C@@H](COC)c1ccccc1` [Example 133, 2-butyl-5-[4-(6-fluoropyridin-3-yl)benzenesulfonyl]-6-hydroxy-1-[(1R)-2-methoxy-1-phenylethyl]-1,4-dihydropyrimidin-4-one], the EC50 was 0.01 to 10 nM.

As for `CCCCc1nc(=O)c(S(=O)(=O)c2cc(C)oc2C)c(O)n1-c1c(OC)cccc1OC` [Example 100, 2-butyl-1-(2,6-dimethoxyphenyl)-5-[(2,5-dimethylfuran-3-yl)sulfonyl]-6-hydroxy-1,4-dihydropyrimidin-4-one], the EC50 was in the range of 0.01 to 10 nM.

Turning to `COC[C@@H](c1ccccc1)n1c(CCC(C)C)nc(=O)c(S(=O)(=O)c2ccc(-c3ccncc3C)cc2)c1O` [Example 191, 6-hydroxy-1-[(1R)-2-methoxy-1-phenylethyl]-2-(3-methylbutyl)-5-[4-(3-methylpyridin-4-yl)benzenesulfonyl]-1,4-dihydropyrimidin-4-one], the EC50 was in the range of 0.01 to 10 nM.

Take `CCCCc1nc(=O)c(S(=O)(=O)c2ccc(C(=O)N3CCC(F)(F)C3)cc2)c(O)n1-c1c(OC)cccc1OC` [Example 95, 2-butyl-5-[4-(3,3-difluoropyrrolidine-1-carbonyl)benzene-sulfonyl]-1-(2,6-dimethoxyphenyl)-6-hydroxy-1,4-dihydropyrimidin-4-one]: the EC50 was 0.01 to 10 nM.

In the case of `CCCCc1nc(=O)c(S(=O)(=O)c2ccc(-c3ccncc3F)cc2)c(O)n1-c1c(OC)cccc1OC` [Example 34, 2-butyl-1-(2,6-dimethoxyphenyl)-5-[4-(3-fluoropyridin-4-yl)benzenesulfonyl]-6-hydroxy-1,4-dihydropyrimidin-4-one], the half-maximal effective concentration (EC50) was in the range of 0.01 to 10 nM.

Consider `CCCCc1nc(=O)c(S(=O)(=O)c2ccc(-n3cc(C)ccc3=O)cc2)c(O)n1-c1c(CC)cccc1CC` [Example 78, 2-butyl-1-(2,6-diethylphenyl)-6-hydroxy-5-[4-(5-methyl-2-oxo-1,2-dihydropyridin-1-yl)benzenesulfonyl]-1,4-dihydropyrimidin-4-one], for which the EC50 is 0.01 to 10 nM.
